Measured values: patent US11197826B2, “Oil-in-water emulsions including retinoic acid” (NOVARTIS AG, priority 2015, dated 2021)

Tests used:
[1] = tested on: CCR9 on CD4+ T-cells expressing the DO-11.10 T-cell receptor; assay: Adoptive T-cell transfer with fingolimod: CCR9 expression and proliferation of DO-11.10 CD4+ T-cells in draining lymph nodes; assay type: in vivo, mice; conditions: FACS, MF59-adjuvanted ovalbumin plus retinoic acid versus MF59 plus plain vehicle
Description: Reference describes experimental protocols for studying the homing of T-cells in mice who receive retinoic acid. In brief, T-cells specific for test antigens (in the present case, ovalbumin) are adoptively transferred into mice and their behaviour in response to specific treatments is studied. This general experimental procedure was used to assess the effect of MF59 and retinoic acid on CCR9 expression in T-cells, and on their in vivo migration.
Mice were injected intravenously with 2×10^6 CD4^+ T-cells which react to ovalbumin peptides (DO-11.10 cells). These cells were labelled with CFSE before being administered. At around the same time they were given either retinoic acid or a plain vehicle. The next day they received MF59-adjuvanted ovalbumin, and the next day they again received RA or plain vehicle, plus fingolimod (which blocks the egress of lymphocytes from lymph nodes). A few days later their draining lymph nodes were drained and CD4^+ T-cells expressing the DO-11.10 T-cell receptor were tested for CCR9 expression by FACS. The CFSE label was used to trace cell proliferation.

[2] = Mucosal antibody responses after MF59-adjuvanted immunisation; assay type: in vivo, mice
Description: To assess antibody responses mice were injected with 3 doses of either ovalbumin or H56 (a […] antigen) on days 0, 21, and 42, adjuvanted with MF59. The day before and after each immunization one group of mice were given retinoic acid whereas control mice received a plain vehicle instead. Serum IgG and vaginal wash IgA antibody responses were assessed at day 56. IgA-secreting cells were also measured in the bone marrow.

[3] = cited from earlier work

Which results are given for `CC1=C(/C=C/C(C)=C/C=C/C(C)=C/C(=O)O)C(C)(C)CCC1` [retinoic acid]?
number of CCR9-positive cells, fold higher [1]: about 5 ×; proportion of IgA-secreting cells, fold higher, H56 ([2]; bone marrow, H56 adjuvanted with MF59, retinoic acid versus plain vehicle): around 12 ×; proportion of IgA-secreting cells, fold higher, ovalbumin ([2]; bone marrow, ovalbumin adjuvanted with MF59, retinoic acid versus plain vehicle): about 7 ×; antigen-specific IgA titres in vaginal washes ([2]; day 56, 3 MF59-adjuvanted doses, plain vehicle essentially zero): about 1250; solubility in oil [3]: soluble; solubility in water [3]: sparingly soluble
